Experimental findings from patent US12077503B2, “Substituted cyclic amides and their use as herbicides” (FMC CORPORATION, priority 2015, dated 2024) are described below.

Assay type in all cases: in vivo
The test system of test [1] is ryegrass, Italian (Italian ryegrass, Lolium multiflorum). Kind of test: Test A preemergence. The following applies: Lolium multiflorum, pre-emergence, 240 h; for pest or weed control at 125 g/ha: 125 g ai/ha, Preemergence, visual injury rating after approximately 10 d, read-out: Ryegrass, Italian plant response rating (0 to 100 scale, 0 is no effect, 100 is complete control); for pest or weed control at 500 g/ha: 500 g ai/ha, preemergence, visual injury rating about 10 d after treatment, 0 to 100 scale (0 no effect, 100 complete control), read-out: Ryegrass, Italian plant response rating. The gist of the method: (§1)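 Seeded soil received test chemicals as a preemergence directed spray, and seedlings at one to two leaves, 2–10 cm tall, received them postemergence, in a non-phytotoxic, surfactant-containing solvent mixture. Pots were held in a greenhouse for approximately 10 d, then rated for injury from 0, no effect, to 100, complete control.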

The test system of test [2] is barnyardgrass (Echinochloa crus-galli). The experiment in a line: Test A postemergence. The following applies: Echinochloa crus-galli, post-emergence, 240 h, 125 g ai/ha, Postemergence; visual injury after approximately 10 d; 0 to 100 scale where 0 is no effect and 100 is complete control; read-out: Plant response rating, Barnyardgrass. The gist of the method:
as §1

The test system of test [3] is Galium (catchweed bedstraw, Galium aparine). Kind of test: Test A postemergence. Conditions: Galium, post-emergence, 240 h, 125 g ai/ha, Postemergence; visual injury after approximately 10 d; 0 to 100 scale where 0 is no effect and 100 is complete control; read-out: Plant response rating, Galium. In outline:
as §1

In test [4] the test system is ryegrass, Italian (Italian ryegrass, Lolium multiflorum). Kind of test: Test A postemergence. The following applies: Lolium multiflorum, post-emergence, 240 h, 125 g ai/ha, Postemergence; visual injury after approximately 10 d; 0 to 100 scale where 0 is no effect and 100 is complete control; read-out: Plant response rating, Ryegrass, Italian. The gist of the method:
as §1

Test [5] concerns blackgrass (Alopecurus myosuroides). Kind of test: Test A postemergence. The following applies: Alopecurus myosuroides, post-emergence, 240 h, 125 g ai/ha, Postemergence; visual injury after approximately 10 d; 0 to 100 scale where 0 is no effect and 100 is complete control; read-out: Plant response rating, Blackgrass. In outline: as §1
Test [6] deals with giant foxtail (Setaria faberii). Kind of test: Test A postemergence. Conditions: Setaria faberi, post-emergence, 240 h, 125 g ai/ha, Postemergence; visual injury after approximately 10 d; 0 to 100 scale where 0 is no effect and 100 is complete control; read-out: Plant response rating, Foxtail, Giant. In outline:
as §1

Test [7] has as its system pigweed (Amaranthus retroflexus). Kind of test: Test A postemergence. The following applies: Amaranthus retroflexus, post-emergence, 240 h, 125 g ai/ha, Postemergence; visual injury after approximately 10 d; 0 to 100 scale where 0 is no effect and 100 is complete control; read-out: Plant response rating, Pigweed. The gist of the method:
as §1

Test [8] deals with ragweed (common ragweed, Ambrosia elatior). Kind of test: Test A postemergence. The following applies: Ambrosia artemisiifolia, post-emergence, 240 h, 125 g ai/ha, Postemergence; visual injury after approximately 10 d; 0 to 100 scale where 0 is no effect and 100 is complete control; read-out: Plant response rating, Ragweed. The gist of the method: as §1
Test [9] relates to wheat (Triticum aestivum). Kind of test: Test A postemergence. The following applies: Triticum aestivum, post-emergence, 240 h, 125 g ai/ha, Postemergence; visual injury after approximately 10 d; 0 to 100 scale where 0 is no effect and 100 is complete control; read-out: Plant response rating, Wheat. The gist of the method: as §1
The subject of a further test is corn (Zea mays). Kind of test: Test A postemergence. The following applies: Zea mays, post-emergence, 240 h, 125 g ai/ha, Postemergence; visual injury after approximately 10 d; 0 to 100 scale where 0 is no effect and 100 is complete control. The gist of the method: as §1
The test system of the next test is Kochia (Kochia scoparia). Kind of test: Test A postemergence. The following applies: Bassia scoparia, post-emergence, 240 h, 125 g ai/ha, Postemergence; visual injury after approximately 10 d; 0 to 100 scale where 0 is no effect and 100 is complete control; read-out: Plant response rating, Kochia. The gist of the method: as §1
In test [10] the test system is barnyardgrass (Echinochloa crus-galli). The experiment in a line: Test B flooded paddy test. Conditions: Echinochloa crus-galli, Flood, 250 g ai/ha; scale of 0 to 100 where 0 is no effect and 100 is complete control; read-out: Barnyardgrass plant response rating. The gist of the method:
(§2)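 Flooding to 3 cm over soil accompanied treatment, which consisted of adding compound to the standing water around 2-leaf plants; depth was then maintained. Visual assessment versus controls followed at 13 to 15 d (scale 0–100, 0 meaning no effect).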

The subject of test [11] is sedge, umbrella (small-flower umbrella sedge, Cyperus difformis). The experiment in a line: Test B flooded paddy test. Conditions: Cyperus difformis, Flood, 250 g ai/ha; scale of 0 to 100 where 0 is no effect and 100 is complete control; read-out: Sedge, Umbrella plant response rating. The gist of the method: as §2
The subject of test [12] is ducksalad (Heteranthera limosa). Kind of test: Test B flooded paddy test. Conditions: Heteranthera limosa, Flood, 250 g ai/ha; scale of 0 to 100 where 0 is no effect and 100 is complete control; read-out: Ducksalad plant response rating. In outline:
as §2

The subject of the next test is rice (Oryra sativa). Kind of test: Test B flooded paddy test. Conditions: Oryza sativa, Flood, 250 g ai/ha; scale of 0 to 100 where 0 is no effect and 100 is complete control; read-out: Rice plant response rating. The gist of the method:
as §2

Take `CCOc1cccc([C@H]2CN(C)C(=O)[C@@H]2C(=O)Nc2cccc(F)c2F)c1` [Compound 956]: the pest or weed control at 125 g/ha was found to be 40% in [1]; 90% in test [2]; 40% in test [3]; 50% in test [4]; 40% in test [5]; 80% in test [6]. Also, the pest or weed control at 125 g/ha in test [7] was determined as 0%; in [8], 20%; in the test with Kochia (Kochia scoparia), 30%. For the same compound, the pest or weed control at 500 g/ha in test [1] is 90%. For the same compound, the plant injury at 125 g/ha in [9] worked out at 30%. The compound also yielded a Corn plant response rating (crop injury, 0 = no effect, 100 = complete kill) at 125 g/ha with corn (Zea mays) of 50%. The pest or weed control at 250 g/ha in test [10] is 70%; in [11] it was 0%; in test [12], 100%; in the test on rice (Oryra sativa), 0%.
On to `CN1C[C@H](c2csc(C(F)(F)F)c2)[C@@H](C(=O)Nc2cccc(F)c2F)C1=O` [Compound 959], for which the pest or weed control at 125 g/ha in test [1] worked out at 20%; in test [2], 90%; in test [3], 40%; in test [4] it was 30%; in [5] it was 30%; in [6] it was 80%. In addition, the pest or weed control at 125 g/ha in [7] stood at 0%; in [8] it was 0%; with Kochia (Kochia scoparia) it was 50%. Also, the pest or weed control at 500 g/ha in test [1] was 60%. In addition, the plant injury at 125 g/ha in test [9] worked out at 20%. The Corn plant response rating (crop injury, 0 = no effect, 100 = complete kill) at 125 g/ha in the test with corn (Zea mays) worked out at 30%. For the same compound, the pest or weed control at 250 g/ha in test [10] amounted to 60%; in test [11], 0%; in test [12], 100%; in the test on rice (Oryra sativa) it was 20%.
`CN1C[C@H](c2cc(C(F)(F)F)cs2)[C@@H](C(=O)Nc2ccccc2F)C1=O` [Compound 962]: the pest or weed control at 125 g/ha worked out at 0% in [1]; 90% in test [2]; 30% in [3]; 20% in test [4]; 20% in [5]; 90% in [6]. For the same compound, the pest or weed control at 125 g/ha in test [7] came to 0%; in test [8] it was 0%; in the test with Kochia (Kochia scoparia), 20%. Also, in test [1], the pest or weed control at 500 g/ha was determined as 30%. The plant injury at 125 g/ha in test [9] was 30%. Further, in the test with corn (Zea mays), the Corn plant response rating (crop injury, 0 = no effect, 100 = complete kill) at 125 g/ha was 0%. The pest or weed control at 250 g/ha in [10] came out at 60%; in test [11] it was 0%; in test [12], 90%; in the test with rice (Oryra sativa), 10%.
As for `CC(C)COc1cccc([C@H]2CNC(=O)[C@@H]2C(=O)Nc2cccc(F)c2F)c1` [Compound 965], the pest or weed control at 125 g/ha was determined as 70% in test [1]; 80% in test [2]; 40% in [3]; 0% in [4]; 30% in test [5]; 70% in [6]. The pest or weed control at 125 g/ha (in [7]; in test [8]; in the test on Kochia (Kochia scoparia)) was 0% throughout. Also, the pest or weed control at 500 g/ha in test [1] is 90%. Moreover, the plant injury at 125 g/ha in test [9] was determined as 20%. This compound gave a Corn plant response rating (crop injury, 0 = no effect, 100 = complete kill) at 125 g/ha in the test with corn (Zea mays) of 30%. For the same compound, the pest or weed control at 250 g/ha is 20% in [10], 0% in test [11], 85% in test [12] and 0% in the test with rice (Oryra sativa).
For the compound `CC(C)COc1cccc([C@H]2CNC(=O)[C@@H]2C(=O)Nc2ccc(F)cc2F)c1` [Compound 966], the pest or weed control at 125 g/ha in test [1] was found to be 20%; in test [2], 60%; in [3], 20%; in [4], 0%; in test [5] it was 20%; in [6] it was 40%. Further, the pest or weed control at 125 g/ha (in [7]; in [8]; with Kochia (Kochia scoparia)) was 0% throughout. In addition, in test [1], the pest or weed control at 500 g/ha worked out at 60%. Also, the plant injury at 125 g/ha in [9] came out at 0%. This compound also had a Corn plant response rating (crop injury, 0 = no effect, 100 = complete kill) at 125 g/ha in the test with corn (Zea mays) of 0%. In addition, the pest or weed control at 250 g/ha in test [10] came out at 0%; in test [11], 0%; in [12], 60%; in the test on rice (Oryra sativa) it was 0%.
As for `CN1C[C@H](c2cc(F)cc(F)c2)[C@@H](C(=O)Nc2ccc(C(F)(F)F)cc2)C1=O` [Compound 968], the pest or weed control at 125 g/ha in test [1] was determined as 0%; in test [2], 20%; in test [3], 0%; in [4], 0%; in [5], 0%; in test [6], 0%. Also, the pest or weed control at 125 g/ha (in test [7]; in [8]; in the test with Kochia (Kochia scoparia)) was 0% in each case. The pest or weed control at 500 g/ha in test [1] stood at 0%. In addition, the plant injury at 125 g/ha in [9] amounted to 0%. In the test on corn (Zea mays), this compound had a Corn plant response rating (crop injury, 0 = no effect, 100 = complete kill) at 125 g/ha of 0%. In addition, the pest or weed control at 250 g/ha in test [10] stood at 0%; in test [11], 0%; in test [12] it was 30%; in the test on rice (Oryra sativa), 0%.
